Peptide text beside a SMILES is read from it. * marks the point of attachment. Trt = c1ccc(C(c2ccccc2)(c2ccccc2)*)cc1; Cbz = O=C(OCc1ccccc1)*; NHNH2 = NN*
Molecular target: Cdc42 (Homo sapiens, UniProt P60953)
Experiment: Cdc42-GEF-assay, additional compound screening
Type: biochemical
Parameters: purchased Cytoskeleton Inc
Conditions: for % ZCL367 (inhibitor activity): percentages of ZCL367 normalized to batch, less than 100% = more potent inhibitor; for % ZCL278 (with GEF): assay slope relative to ZCL278, normalized to batch; for % ZCL278 (without GEF): baseline slope relative to ZCL278, normalized to batch
Description: Rho-GEF IC50 Assay: Rho-GEF assay (Cytoskeleton Inc., Denver, Colorado, United States of America) was conducted per manufacturer's instructions (λex=360 nm, λem=460 nm). Briefly, a solution (50 μL) of purified Rho GTPase (1 μM) and mant-GTP (1.5 μM) with or without compound (0.001-500 μM) was prepared and the absorbance monitored for 10-30 min to obtain the background/baseline. The addition of purified GEF/DH domain (0.08-0.2 μM) was carried out simultaneously and the absorbance was recorded for 30-45 min. The linear slope following the addition of the GEF was calculated and expressed as percentage of the control and plotted on an IC50 curve.
Cdc42 (1 μM) was incubated with mant-GTP (1.5 μM) and varying concentrations of ZCL278, ZCL279, or ZCL367 (5-500 μM). Fluorescent readings were taken every minute for 10 m to acquire the baseline. The GEF/DH domain (0.08-0.2 μM) was added followed by readings taken every minute for another 30 m. The linear phase was calculated from within the time period of 12-22 m. Cdc42 (1 μM) was incubated with mant-GTP (1.5 μM) and varying concentrations of ZCL278, ZCL279, or ZCL367 (5-500 μM). Fluorescent readings were taken every minute for 30 m to monitor the binding of mant-GTP in the absence of GEF/DH domain.
Cdc42-GEF-assays were conducted on additional screening compounds in batches of 9 compounds per batch as described above in Example 2 using ZCL278 and ZCL367 as standards. Screening compounds were taken from the Specs Chemistry Database of 197,000 compounds for small molecule or the National Cancer Institute Compound Library. […] These compounds promote Cdc42-mantGTP binding without GEF. It is possible that these compounds can inhibit Cdc42-mantGTP binding with GEF. […] These compounds appear to have activity like ZCL279. […] However, upon the addition of GEF, the compounds appear to facilitate the binding of mantGTP to Cdc42 (high assay slope, relative to ZCL278)

Chain of Cdc42 (P60953 whole entry): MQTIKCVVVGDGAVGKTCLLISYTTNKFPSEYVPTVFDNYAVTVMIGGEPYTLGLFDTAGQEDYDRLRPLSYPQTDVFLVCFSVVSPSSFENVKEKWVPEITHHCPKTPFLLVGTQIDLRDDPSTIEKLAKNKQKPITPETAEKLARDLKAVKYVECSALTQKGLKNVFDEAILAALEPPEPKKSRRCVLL

Row | % ZCL367 (inhibitor activity) [%] | % ZCL278 (with GEF) [%] | % ZCL278 (without GEF) [%] | SMILES | also measured
1 | 29.97 |  |  | O=C(CCCN1C(=O)/C(=C2\SC(=S)N(CCCC(=O)Nc3ccccc3O)C2=O)SC1=S)Nc1ccccc1O [ZCL1100] | 
2 | 3.42 |  |  | CCCCCn1c(O)c(C(=O)Nc2ccccc2S(N)(=O)=O)c(=O)c2ccccc21 [ZCL1105] | 
3 | 62.37 |  |  | O=C1C2C(C(=O)N1/N=C/c1c(O)ccc3ccccc13)[C@H]1C=CC2C12CC2 (stereo partly drawn) [ZCL1107] | 
4 | 55.74 |  |  | O=C1/C(=C/c2ccc(O)c(O)c2)SC(=S)N1Nc1ccccc1 [ZCL1109] | 
5 | 104.15 |  |  | O=C(CCCN1C(=O)/C(=C2\SC(=S)N(CCCC(=O)Nc3ccccc3O)C2=O)SC1=S)Nc1ccccc1O [ZCL1110] | 
6 | 109.35 |  |  | O=c1c2ccccc2nc(/C=C/c2c(O)ccc3ccccc23)n1-c1ccc(O)cc1 [ZCL1111] | 
7 | 27.33 |  |  | OCCNC[C@H](O)Cn1c(-c2ccccc2)c(-c2ccccc2)c2ccc3ccccc3c21 [ZCL1115] | 
8 | 74.15 |  |  | O=C(CSCc1ccccc1)Nc1ccc(C(=O)O)cc1NC(=O)CSCc1ccccc1 [ZCL1117] | 
9 | 46.77 |  |  | NC(=O)c1cc([N+](=O)[O-])ccc1NCCN1C(=O)C2C(C1=O)[C@H]1C=C[C@@H]2C1 (stereo partly drawn) [ZCL1118] | 
10 |  | 103.291 | 59.173 | O=C(CCN1C(=O)C2C(C1=O)[C@H]1C=C[C@@H]2C1)Nc1cccc2ccccc12 (stereo partly drawn) [ZCL1119] | 
11 | 81.19 |  |  | C[C@H](Oc1cccc(Cl)c1)C(=O)Nc1ccccc1NC(=O)[C@H](C)Oc1cccc(Cl)c1 [ZCL1120] | 
12 |  | 97.542 | 63.125 | CC(=O)Nc1ccc(Nc2nc(-c3ccc(O)cc3)cs2)cc1 [ZCL1124] | 
13 | 28.67 |  |  | NC(=O)c1ccsc1NC(=O)c1cc(-c2cccc(Br)c2)nc2ccc(Cl)cc12 [ZCL1125] | 
14 | 98.5 |  |  | O=C(Nc1ccc(S(=O)(=O)Nc2cccc3ccccc23)cc1)Nc1cccc(Cl)c1 [ZCL1127] | 
15 | 93.54 |  |  | O=C(C(=O)N1CCC(O)(CO)CC1)c1c(-c2ccccc2)cc2ccccn12 [ZCL1137] | 

More lines, now with the values behind:

Row | SMILES | % ZCL367 (inhibitor activity) [%] | % ZCL278 (with GEF) [%] | % ZCL278 (without GEF) [%] | also measured
16 | CC1(C)OCC(C2OC(O)C3OC(C)(C)OC32)O1 (stereo not drawn) [NSC25268] | 64.92 |  |  | 
17 | OCN1CCC2N(CO)CCC3N(CO)CCC1N23 (stereo not drawn) [NSC81461] |  | 92.160 | 15.832 | 
18 | O=c1[nH]cc(C2OCC(O)C(O)C2O)c(=O)[nH]1 (stereo not drawn) [NSC94024] |  | 96.844 | 34.327 | 
19 | Cc1cn(C2OC(C(O)C(N)=O)C(O)C2O)c(=O)[nH]c1=O (stereo not drawn) [NSC111600] |  | 185.829 | 9.098 | 
20 | NC1C=CN(C2OC(CO)C(O)C2O)C(=O)N1O (stereo not drawn) [NSC128731] |  |  |  | % ZCL278 (activator activity) (percentages of ZCL278 activity normalized to batch, more than 100% = more potent activator, Table 9): 108.28%
21 | NNC(=O)C(Cc1cnc[nH]1)NC(=O)CNC(=O)C(CSC(c1ccccc1)(c1ccccc1)c1ccccc1)NC(=O)OCc1ccccc1 (stereo not drawn) [NSC129911] (Cbz-Cys(Trt)-Gly-His-NHNH2; configuration not given here) |  | 96.611 | 31.919 | 
22 | CC1(C)OC2COC(c3[nH]nc(C(N)=O)c3C(=O)N=[N+]=[N-])C2O1 (stereo not drawn) [NSC136024] |  | 82.316 | 20.812 | 
23 | NC(=O)c1[nH]nc(C2OC(CO)C(O)C2O)c1O (stereo not drawn) [NSC143095] | 62.98 |  |  | 
24 | NS(=O)(=O)c1ccc(NC2OCC(O)C(O)C2O)cc1 (stereo not drawn) [NSC158437] |  | 127.593 | 12.229 | 
25 | Cc1c2oc3c(C)ccc(C(=O)NC(C(N)=O)C(C)O)c3nc-2c(C(=O)NC(C(N)=O)C(C)O)c(N)c1=O (stereo not drawn) [NSC407188] | 70.58 |  |  | 

Source: patent publication US12285393B2, “Roles of modulators of intersectin-Cdc42 signaling in Alzheimer's disease” (priority 2017, dated 2025)
